# US20040136931A1, “Photoprotective cosmetic compositions comprising 3-(2-azacycloalkylidene)-1,3-dihydroindol-2-one compounds” (SOCIETE L'OREAL S.A., priority 2002, published 2004)
# Key:
# [1] = Sun screening properties (UV absorption); format: physicochemical; conditions: 92.8% acetonitrile+7.2% DMSO
# From the text: This compound has the following sun screening properties:
# λmax=350 nm (92.8% acetonitrile+7.2% DMSO)
# [2] = Photostability: irradiation of an oily film in a solar simulator; format: physicochemical; conditions: one hour of irradiation in a solar simulator (UVA=18.6 mW/cm^2, UVB=0.6 mW/cm^2); oily film containing 0.5% of the compound
# [3] = RPE (Resonance Paramagnetic Electronic) study of pro-oxidizing activity under irradiation; conditions: formulated medium, irradiation under the same conditions as the photostability test (solar simulator)
λmax [1],εmax ([1]; at λmax),E1% ([1]; at λmax),residual level of the compound after irradiation [2],SMILES,pro-oxidizing activity [3]
326 nm,22600 1.mol^−1.cm^−1,–,–,"CCN1C(=O)/C(=C2/CCCN2)c2ccccc21 [Compound 2, 1-Ethyl-3-pyrrolidin-2-ylidine-1,3-dihydroindol-2-one]",–
350 nm,17501 1.mol^−1.cm^−1,722,92%,"CCN1C(=O)/C(=C2/CCCN2C)c2ccccc21 [Compound 1, 1-Ethyl-3-(1-methylpyrrolidin-2-ylidene)-1,3-dihydroindol-2-one]",does not manifest any pro-oxidizing activity
328 nm,8100 1.mol^−1.cm^−1,–,–,"O=C1Nc2ccccc2/C1=C1\CCCN1 [Compound 3, 3-Pyrrolidin-2-ylidene-1,3-dihydroindol-2-one]",–
